Test results from patent publication US8389739B1, “Modulators of retinoid-related orphan receptor gamma” (Orphagen Pharmaceuticals, priority 2006, dated 2013).

Assays:
SF-1 (human SF-1) = target: T1, SF-1 (human SF-1) (Homo sapiens, UniProt Q13285); test: Transcriptional assay of SF-1 as GAL4 hybrid; assay type: cell-based; conditions: same format as the GAL4-RORγ assay
T1 construct: human SF-1 (NR5A1, aa 198-462); expressed in transfected cells; host or cells: CHO cells, transient transfection
T1 sequence (Q13285 198-461 limits assumed): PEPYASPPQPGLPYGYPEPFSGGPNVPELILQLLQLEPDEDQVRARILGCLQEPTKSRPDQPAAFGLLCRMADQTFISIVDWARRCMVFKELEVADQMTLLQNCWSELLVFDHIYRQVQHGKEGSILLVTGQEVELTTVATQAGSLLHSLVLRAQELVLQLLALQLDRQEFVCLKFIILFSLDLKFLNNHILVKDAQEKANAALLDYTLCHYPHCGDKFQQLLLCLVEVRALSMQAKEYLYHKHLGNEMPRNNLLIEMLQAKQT
Method: (§1) This example also describes several additional tests that were commonly performed to confirm the authenticity of a hit to RORγ. These tests also verified the validity of the transcriptional and biochemical assays used. […] In some cases, close analogs of a confirmed hit were obtained by synthesis or purchase from a commercial source. The series of compounds related to the confirmed hit was then tested in the biochemical and transcriptional assays. The rank order of the potency of the compounds was then compared. […] The data imply in turn that the compounds are binding to the same binding pocket. […]
(§2) Four hours after transfection, cells were dislodged with trypsin and seeded into a 384-well plate at 8,000 cells/well using a Titertek Multidrop 384. […] After incubation for 2 hours at 37 degrees centigrade, the conversion of resazurin to resorufin was measured by fluorescence (excitation at 570 nm and emission at 615 nm). […] Percent viability was determined as 2 hour fluorescence, minus background at t=0 hours, normalized to DMSO controls. […] Luminescence is detected with a Victor 2-V plate reader (Perkin-Elmer) and normalized to luciferase activity of DMSO control wells alone.

RORβ (human RORβ) = target: T2, RORβ (human RORβ) (Homo sapiens, UniProt Q92753); test: Transcriptional assay of RORβ as GAL4 hybrid; assay type: cell-based; conditions: same format as the GAL4-RORγ assay
T2 construct: human RORβ (NR1F2, aa 201-459); expressed in transfected cells; host or cells: CHO cells, transient transfection
T2 sequence (Q92753 212-470): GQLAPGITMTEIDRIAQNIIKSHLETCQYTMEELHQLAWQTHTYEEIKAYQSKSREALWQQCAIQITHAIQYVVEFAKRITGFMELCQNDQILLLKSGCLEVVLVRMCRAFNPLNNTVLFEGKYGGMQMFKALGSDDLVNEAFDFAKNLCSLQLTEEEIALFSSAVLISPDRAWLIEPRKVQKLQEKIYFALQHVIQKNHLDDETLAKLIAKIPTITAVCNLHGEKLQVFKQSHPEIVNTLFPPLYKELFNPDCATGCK
Method: as §1, §2

CHO cells = test: Cytotoxicity in CHO cells (resazurin conversion); assay type: cell-based, Chinese Hamster
Method: Four hours after transfection, cells were dislodged with trypsin and seeded into a 384-well plate at 8,000 cells/well using a Titertek Multidrop 384. Edge effects within the 384-well plate were minimized by leaving plates at room temperature for 30 min so that cells plated evenly within each well (Lundholt, Scudder et al. 2003). Plates are maintained at 37° C. in a humidified atmosphere with 7% CO2 overnight. […] Approximately 40 hours later, cytotoxicity in the assay well was characterized by addition of the dye resazurin (O'Brien, Wilson et al. 2000) to a final concentration of 3 μM. After incubation for 2 hours at 37 degrees centigrade, the conversion of resazurin to resorufin was measured by fluorescence (excitation at 570 nm and emission at 615 nm). […] Percent viability was determined as 2 hour fluorescence, minus background at t=0 hours, normalized to DMSO controls. For detection of luciferase activity, media was removed from plates after the measurement of resazurin conversion, and SteadyLite luciferase reagent (Perkin-Elmer) was added (30 μl/well). Luminescence is detected with a Victor 2-V plate reader (Perkin-Elmer) and normalized to luciferase activity of DMSO control wells alone.

| effect on the transcription of SF-1 (SF-1 (human SF-1)) | effect on the transcription of RORβ (RORβ (human RORβ)) | Compound | concentration not cytotoxic to CHO cells (CHO cells) [µM] |
| --- | --- | --- | --- |
| no effects | no effects | CCN(c1ccc(C(O)(C(F)(F)F)C(F)(F)F)cc1)S(=O)(=O)c1ccc([N+](=O)[O-])cc1 [OR-1050, N-Ethyl-4-nitro-N-[4-(2,2,2-trifluoro-1-hydroxy-1-trifluoromethyl-ethyl)-phenyl]-benzenesulfonamide] | 50 |
| no effects | no effects | O=S(=O)(c1ccccc1)N(CC(F)(F)F)c1ccc(C(O)(C(F)(F)F)C(F)(F)F)cc1 [Compound T0901317, N-(2,2,2-Trifluoro-ethyl)-N-[4-(2,2,2-trifluoro-1-hydroxy-1-trifluoromethyl-ethyl)-phenyl]-benzenesulfonamide, reference compound] | < 10 |
